In patent US20200071326A1, “TAM KINASE INHIBITORS” (Syros Pharmaceuticals, Inc., priority 2017, published 2020) one finds Ki data, which are given here for 26 compounds.

One experiment addresses T1, FLT3 (Homo sapiens, UniProt P36888).
T1 sequence (P36888 27-993): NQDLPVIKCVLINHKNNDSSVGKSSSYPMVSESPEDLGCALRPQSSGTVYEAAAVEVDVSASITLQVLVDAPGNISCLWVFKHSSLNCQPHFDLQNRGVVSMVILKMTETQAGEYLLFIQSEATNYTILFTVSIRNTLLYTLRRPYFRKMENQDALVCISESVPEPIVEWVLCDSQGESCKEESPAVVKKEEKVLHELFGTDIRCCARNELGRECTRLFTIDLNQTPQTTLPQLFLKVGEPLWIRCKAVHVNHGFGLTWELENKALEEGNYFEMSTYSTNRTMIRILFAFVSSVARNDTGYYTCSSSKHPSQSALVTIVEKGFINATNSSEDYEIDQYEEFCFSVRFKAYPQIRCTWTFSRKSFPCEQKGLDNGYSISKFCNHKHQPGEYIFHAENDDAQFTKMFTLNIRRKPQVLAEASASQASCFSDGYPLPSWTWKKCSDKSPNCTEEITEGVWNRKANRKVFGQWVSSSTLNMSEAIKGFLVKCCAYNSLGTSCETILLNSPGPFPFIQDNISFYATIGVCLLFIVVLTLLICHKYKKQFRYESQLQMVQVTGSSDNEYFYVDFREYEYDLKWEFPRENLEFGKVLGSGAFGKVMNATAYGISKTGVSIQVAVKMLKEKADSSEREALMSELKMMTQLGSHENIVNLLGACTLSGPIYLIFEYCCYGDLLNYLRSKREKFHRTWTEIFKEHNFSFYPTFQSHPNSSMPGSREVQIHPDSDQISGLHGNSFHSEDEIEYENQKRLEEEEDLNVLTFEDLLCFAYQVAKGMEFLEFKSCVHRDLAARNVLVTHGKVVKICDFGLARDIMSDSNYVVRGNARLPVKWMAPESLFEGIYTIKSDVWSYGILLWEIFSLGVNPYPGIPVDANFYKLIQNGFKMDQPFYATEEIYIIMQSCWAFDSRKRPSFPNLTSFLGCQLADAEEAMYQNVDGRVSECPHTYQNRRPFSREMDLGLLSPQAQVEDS
Description: IMAP fluorescence polarization kinase assay, FLT3. The class given is biochemical. The note with it: ATP 2.74 μM, enzyme 2.5 nM, 240 minutes, read-out: FLT3 inhibitory constant (Ki). On the procedure:
(§1) Activities of compounds against each of TYRO3, AXL, and MERTK as well as against FLT3, were determined using an immobilized metal ion affinity-based fluorescence polarization (“IMAP”) assay. A fluorescently-labeled substrate peptide was phosphorylated in the kinase reaction, after which a binding solution containing large trivalent metal-based nanoparticles was added and the phosphorylated substrate binds to these beads. This reduces the rotational speed of the substrate which is then detected using fluorescence polarization as a read-out.
(§2) The substrates used for each enzyme are as follows: AXL: 5F1-KKKKEEIYFFFG-NH2(SEQ ID NO:1); FLT3: 5F1-KKKKEEIYFFF-NH2 (SEQ ID NO:2); MERTK: 5F1-EFPIYDFLPAKKK-NH2 (SEQ ID NO:3); and TYRO3: 5F1-EFPIYDFLPAKKK-NH2 (SEQ ID NO:4).
(§3) This assay was performed in a 384-well, polystyrene microplate in a final volume of 8 μl. Substrate (final concentration=400 nM), ATP (final concentrations=24.7μM for AXL; 2.74 μM for FLT3; 2.69 μM for MERTK; and 54.0 μM for TYRO3), compounds and enzyme (final concentrations=2.5 nM for AXL, FLT3 and TYRO3; 1.5 nM for MERTK) were pipetted in this order into the appropriate reaction buffer (AXL: 50 mM HEPES, pH 8.0, 1 mM DTT, 10 mM MgCl2, 0.01% BRU35, 0.01% Triton X-100; FLT3: 50 mM HEPES, pH 8.0, 1 mM DTT, 10 mM MgCl2, 0.01% Triton X-100, 0.01% NP40; MERTK/TYRO3: 50 mM HEPES, pH 8.0, 1 mM DTT, 10 mM MgCl2, 0.01% Triton X-100) and incubated at room temperature for varying times (AXL, FLT3 and MERTK: 240 minutes; TYRO3: 60 minutes). IMAP binding solution was then dispensed, the plate incubated for 60 minutes at room temperature and the fluorescence polarization measured. Data were analyzed using XLfit.

In a further experiment the target is T2, MERTK (Homo sapiens, UniProt Q12866).
T2 sequence (Q12866 21-999): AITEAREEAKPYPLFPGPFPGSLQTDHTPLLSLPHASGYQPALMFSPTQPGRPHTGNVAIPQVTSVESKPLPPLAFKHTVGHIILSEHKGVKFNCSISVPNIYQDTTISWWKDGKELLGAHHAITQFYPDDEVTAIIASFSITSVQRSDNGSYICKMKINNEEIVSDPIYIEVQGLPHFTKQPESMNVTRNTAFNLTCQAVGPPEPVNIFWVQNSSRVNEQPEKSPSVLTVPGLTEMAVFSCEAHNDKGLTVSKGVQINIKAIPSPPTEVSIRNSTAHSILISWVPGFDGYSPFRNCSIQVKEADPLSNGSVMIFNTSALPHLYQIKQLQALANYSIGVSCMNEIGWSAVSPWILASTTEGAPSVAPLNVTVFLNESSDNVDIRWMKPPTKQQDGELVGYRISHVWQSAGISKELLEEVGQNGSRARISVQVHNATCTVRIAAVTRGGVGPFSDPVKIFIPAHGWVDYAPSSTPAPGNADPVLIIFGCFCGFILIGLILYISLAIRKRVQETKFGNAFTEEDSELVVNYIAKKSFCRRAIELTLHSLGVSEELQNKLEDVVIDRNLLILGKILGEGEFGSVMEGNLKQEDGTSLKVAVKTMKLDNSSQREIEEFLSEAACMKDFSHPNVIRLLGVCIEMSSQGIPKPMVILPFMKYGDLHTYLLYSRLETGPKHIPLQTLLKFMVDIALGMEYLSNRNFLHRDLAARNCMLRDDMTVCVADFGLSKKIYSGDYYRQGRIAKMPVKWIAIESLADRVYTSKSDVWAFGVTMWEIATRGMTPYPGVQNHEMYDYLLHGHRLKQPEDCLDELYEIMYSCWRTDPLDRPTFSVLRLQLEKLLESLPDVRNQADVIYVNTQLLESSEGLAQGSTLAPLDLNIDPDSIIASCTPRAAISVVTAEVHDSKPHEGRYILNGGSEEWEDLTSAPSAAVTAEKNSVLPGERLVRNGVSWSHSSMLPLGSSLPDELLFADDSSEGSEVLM
Description: IMAP fluorescence polarization kinase assay, MERTK. The note with it: ATP 2.69 μM, enzyme 1.5 nM, 240 minutes, read-out: MERTK inhibitory constant (Ki). Format: biochemical. On the procedure:
as §1, §2, §3
(In general: In fluorescence polarisation assays a small probe gives low polarisation when free and higher when bound to something large.)

Structures can show the parent of a compound that is named as a salt. Where only a bound is given, the exact number is not on record here.

Regarding `CCCc1cc2c(N[C@H]3CC[C@H](N)CC3)c(-c3ccc(S(=O)(=O)N4CCOCC4)cn3)cnc2[nH]1` [Compound 115], the Ki on FLT3 and on MERTK was under 100 nM in each case.
In the case of `CCCc1cc2c(N[C@H]3CC[C@H](N)CC3)c(-c3cc(NC)ncn3)cnc2[nH]1` [Compound 111, (1r,4r)-N^1-(5-(6-(methylamino)pyrimidin-4-yl)-2-propyl-1H-pyrrolo[2,3-b]pyridine-4-yl)cyclohexane-1,4-diamine hydrochloride], the Ki at FLT3 and at MERTK was under 100 nM throughout.
Take `CCc1cc2c(N[C@H]3CC[C@H](N)CC3)c(C(=O)NCc3ccc(-n4ccnc4)cc3)cnc2[nH]1` [Compound 119, N-(4-(1H-imidazol-1-yl)benzyl)-4-(((1r,4r)-4-aminocyclohexyl)amino)-2-ethyl-1H-pyrrolo[2,3-b]pyridine-5-carboxamide]: the inhibition constant Ki at FLT3 and at MERTK was under 100 nM each time.
Turning to `CCOC(C)c1cc2c(N[C@H]3CC[C@H](N)CC3)c(C(=O)Nc3ccc(F)cc3)cnc2[nH]1` (stereo partly shown) [Compound 152], the results for the inhibition constant Ki on FLT3 and at MERTK were over 10000 nM and 100 to 1000 nM, respectively.
For `CCCc1cc2c(N[C@H]3CC[C@H](N)CC3)c(-c3ccc(F)cn3)cnc2[nH]1` [Compound 114], the Ki on FLT3 and on MERTK was under 100 nM each time.
For `N[C@H]1CC[C@H](Nc2c(C(=O)Nc3ccc(F)cc3)cnc3[nH]c(C(F)(F)F)cc23)CC1` [Compound 135, 4-(((1r,4r)-4-aminocyclohexyl)amino)-N-(4-fluorophenyl)-2-(trifluoromethyl)-1H-pyrrolo[2,3-b]pyridine-5-carboxamide hydrochloride], the values for the inhibitory constant (Ki) on FLT3 and at MERTK were 100 to 1000 nM and under 100 nM, respectively.
On the same counts, the results for `CCCc1cc2c(N[C@H]3CC[C@H](N)CC3)c(C(=O)NC3CCOCC3)cnc2[nH]1` [Compound 124] are 100 to 1000 nM and under 100 nM.
Take `CCCc1cc2c(N[C@H]3CC[C@H](N)CC3)c(C(=O)NCc3ccc(-n4ccnc4)cc3)cnc2[nH]1` [Compound 121]: the Ki on FLT3 and at MERTK was under 100 nM throughout.
Consider `CCC[C@H](C)c1cc2c(N[C@H]3CC[C@H](N)CC3)c(C(=O)Nc3ccc(F)cc3)cnc2[nH]1` [Compound 149], for which the Ki (usually a measure of affinity in units of concentration, obtained from inhibition or displacement) fell in the range of 1000 to 10000 nM at FLT3 and 100 to 1000 nM on MERTK.
The corresponding values for `CCCc1cc2c(N[C@H]3CC[C@H](N)CC3)c(-c3cc(N)ccn3)cnc2[nH]1` [Compound 131] are under 100 nM and 100 to 1000 nM.
Regarding `CCCCCc1cc2c(N[C@H]3CC[C@H](N)CC3)c(C(=O)NCc3ccc(-n4ccnc4)cc3)cnc2[nH]1` [Compound 133], the inhibition constant (Ki) on FLT3 was 100 to 1000 nM; on MERTK, under 100 nM.
On the same counts, the results for `CCCc1cc2c(N[C@H]3CC[C@H](O)CC3)c(-c3cnn(CCN(C)C)c3)cnc2[nH]1` [Compound 107] are 100 to 1000 nM and 100 to 1000 nM.
Take `CCCc1cc2c(N[C@H]3CC[C@H](N)CC3)c(-c3ccccn3)cnc2[nH]1` [Compound 113]: the Ki on FLT3 and on MERTK was under 100 nM in each case.
As to `CCCC(O)c1cc2c(N[C@H]3CC[C@H](N)CC3)c(C(=O)Nc3ccc(F)cc3)cnc2[nH]1` (stereo partly shown) [Compound 154], the inhibition constant Ki on FLT3 is over 10000 nM; at MERTK, 1000 to 10000 nM.
Regarding `CCCc1cc2c(N[C@H]3CC[C@H](N)CC3)c(Br)cnc2[nH]1` [Compound 142], the inhibition constant Ki on FLT3 was 100 to 1000 nM; at MERTK it was under 100 nM.
On the same counts, the results for `CCc1cc2c(N[C@H]3CC[C@H](N)CC3)c(C(=O)Nc3ccc(F)cc3)cnc2[nH]1` [Compound 136] are under 100 nM and under 100 nM.
As to `CCCc1cc2c(N[C@H]3CC[C@H](N)CC3)c(-c3cc(NC(C)C)ncn3)cnc2[nH]1` [Compound 112], the inhibition constant (Ki) on FLT3 and on MERTK was under 100 nM in each case.
With `CCCc1cc2c(N[C@H]3CC[C@H](O)CC3)c(-c3ccc(CN4CCCC4)cn3)cnc2[nH]1` [Compound 125], the inhibition constant (Ki) at FLT3 and on MERTK was under 100 nM in each case.
On to `CCCc1cc2c(N[C@H]3CC[C@H](N)CC3)c(-c3ccc(C)nn3)cnc2[nH]1` [Compound 127], for which the Ki on FLT3 and on MERTK was under 100 nM throughout.
For `CCC(C)c1cc2c(N[C@H]3CC[C@H](N)CC3)c(C(=O)Nc3ccc(F)cc3)cnc2[nH]1` (stereo partly shown) [Compound 134], the inhibitory constant (Ki) on FLT3 is 100 to 1000 nM; at MERTK it was under 100 nM.
For `Cc1cc2c(N[C@H]3CC[C@H](N)CC3)c(C(=O)Nc3ccc(F)cc3)cnc2[nH]1` [Compound 103], the inhibition constant Ki at FLT3 and on MERTK was under 100 nM in each case.
In the case of `CC(O)c1cc2c(N[C@H]3CC[C@H](O)CC3)c(-c3ccc(CN4CCOCC4)cn3)cnc2[nH]1` (stereo partly shown) [Compound 143], the inhibition constant (Ki) at FLT3 and on MERTK was under 100 nM in each case.
Regarding `CCC(CC)c1cc2c(N[C@H]3CC[C@H](N)CC3)c(C(=O)Nc3ccc(F)cc3)cnc2[nH]1` [Compound 147], the Ki on FLT3 lay in the range of 1000 to 10000 nM; at MERTK, 100 to 1000 nM.
Turning to `N[C@H]1CC[C@H](Nc2c(C(=O)NCc3ccc(-n4ccnc4)cc3)cnc3[nH]c(-c4ccccc4)cc23)CC1` [Compound 110], the Ki on FLT3 was 1000 to 10000 nM; at MERTK, under 100 nM.
As for `CC(C)c1cc2c(N[C@H]3CC[C@H](N)CC3)c(C(=O)NCc3ccc(-n4ccnc4)cc3)cnc2[nH]1` [Compound 129], the Ki at FLT3 and at MERTK was under 100 nM each time.
On to `N[C@H]1CC[C@H](Nc2c(C(=O)Nc3ccc(F)cc3)cnc3[nH]c(C4CCC4)cc23)CC1` [Compound 138, 4-(((1r,4r)-4-aminocyclohexyl)amino)-2-cyclobutyl-N-(4-fluorophenyl)-1H-pyrrolo[2,3-b]pyridine-5-carboxamide hydrochloride], for which the Ki at FLT3 and at MERTK was under 100 nM throughout.
